Assay results taken from patent US20100267561A1, “HERBICIDAL PYRIDAZINONE DERIVATIVES” (priority 2007, published 2010).

What was measured:
Format in all cases: in vivo
[1] = tested on: large crabgrass (Digitaria sanguinalis); test: Test A pre-/postemergence plant response
How it was run: (§1)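 Ratings are visual, 0–100, where 100 means complete control and 0 no effect, taken roughly 10 days after treatment by comparison with untreated controls. Formulation: non-phytotoxic solvent mixture with surfactant.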

[2] = tested on: velvetleaf (Abutilon theophrasti); test: Test A pre-/postemergence plant response
How it was run: as §1

[3] = tested on: giant foxtail (Setaria faberi); test: Test A pre-/postemergence plant response
How it was run: as §1

[4] = tested on: green foxtail (Setaria viridis); test: Test C pre-/postemergence plant response
How it was run: (§2)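 Seeds are planted and sprayed preemergence, while established plants at the 1- to 4-leaf stage (2 to 18 cm) receive postemergence sprays of the same surfactant-containing, non-phytotoxic solvent formulation. After 15 to 25 days under controlled conditions, injury is scored visually from 0 (no effect) to 100 (complete control).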

[5] = tested on: canarygrass (Phalaris minor); test: Test C pre-/postemergence plant response
How it was run: as §2

[6] = tested on: winter barley (Hordeum vulgare); test: Test C pre-/postemergence plant response
How it was run: as §2

wild oat (Avena fatua) = test: Test C pre-/postemergence plant response
How it was run: as §2

[7] = tested on: downy bromegrass (Bromus tectorum); test: Test C pre-/postemergence plant response
How it was run: as §2

[8] = tested on: blackgrass (Alopecurus myosuroides); test: Test C pre-/postemergence plant response
How it was run: as §2

[9] = tested on: spring barley (Hordeum vulgare); test: Test C pre-/postemergence plant response
How it was run: as §2

[10] = tested on: wild mustard (Sinapis arvensis); test: Test C pre-/postemergence plant response
How it was run: as §2

[11] = tested on: Italian ryegrass (Lolium multiflorum); test: Test C pre-/postemergence plant response
How it was run: as §2

[12] = tested on: windgrass (Apera spica-venti); test: Test C pre-/postemergence plant response
How it was run: as §2

[13] = tested on: winter wheat (Triticum aestivum); test: Test C pre-/postemergence plant response
How it was run: as §2

[14] = tested on: annual bluegrass (Poa annua); test: Test C pre-/postemergence plant response
How it was run: as §2

[15] = Postemergence, 31 g ai/ha, 0 to 100 scale, 0 no effect, 100 complete control
[16] = Postemergence, 125 g ai/ha, 0 to 100 scale, 0 no effect, 100 complete control
[17] = Preemergence, 31 g ai/ha, 0 to 100 scale, 0 is no effect, 100 is complete control
[18] = Preemergence, 125 g ai/ha, 0 to 100 scale (0 no effect, 100 complete control)
[19] = Postemergence, 8 g ai/ha, scale 0 to 100, 0 no effect, 100 complete control
[20] = Postemergence, 16 g ai/ha, scale 0 to 100, 0 no effect, 100 complete control
[21] = Postemergence, 31 g ai/ha, scale 0 to 100, 0 no effect, 100 complete control
[22] = Postemergence, 62 g ai/ha, scale 0 to 100, 0 no effect, 100 complete control
[23] = Preemergence, 8 g ai/ha, scale 0 to 100 (0 no effect, 100 complete control)
[24] = Preemergence, 16 g ai/ha, scale 0 to 100 (0 no effect, 100 complete control)
[25] = Preemergence, 31 g ai/ha, scale 0 to 100 (0 no effect, 100 complete control)
[26] = Preemergence, 62 g ai/ha, scale 0 to 100, 0 no effect, 100 complete control

Question: Which results are given for `Cc1cc(-c2ccc(C(F)(F)F)c(F)c2)nn1-c1c(O)c(C(F)(F)F)nn(C)c1=O` [Compound 44]?
Answer: Plant response rating, Crabgrass, Large [1, 15]: 50; Plant response rating, Crabgrass, Large [1, 16]: 100; Plant response rating, Crabgrass, Large [1, 17]: 20; Plant response rating, Crabgrass, Large [1, 18]: 100; Plant response rating, Velvetleaf [2, 15]: 0; Plant response rating, Velvetleaf [2, 16]: 0; Plant response rating, Velvetleaf [2, 17]: 0; Plant response rating, Velvetleaf [2, 18]: 0; Plant response rating, Foxtail, Giant [3, 15]: 90; Plant response rating, Foxtail, Giant [3, 16]: 100; Plant response rating, Foxtail, Giant [3, 17]: 80; Plant response rating, Foxtail, Giant [3, 18]: 100; Plant response rating, Foxtail, Green [4, 19]: 50; Plant response rating, Foxtail, Green [4, 20]: 95; Plant response rating, Foxtail, Green [4, 21]: 98; Plant response rating, Foxtail, Green [4, 22]: 100; Plant response rating, Foxtail, Green [4, 23]: 15; Plant response rating, Foxtail, Green [4, 24]: 90; Plant response rating, Foxtail, Green [4, 25]: 100; Plant response rating, Foxtail, Green [4, 26]: 100; Plant response rating, Canarygrass [5, 19]: 75; Plant response rating, Canarygrass [5, 20]: 80; Plant response rating, Canarygrass [5, 21]: 90; Plant response rating, Canarygrass [5, 22]: 100; Plant response rating, Canarygrass [5, 23]: 30; Plant response rating, Canarygrass [5, 24]: 65; Plant response rating, Canarygrass [5, 25]: 75; Plant response rating, Canarygrass [5, 26]: 85; Plant response rating, Barley, Winter [6, 19]: 20; Plant response rating, Barley, Winter [6, 20]: 75; Plant response rating, Barley, Winter [6, 21]: 90; Plant response rating, Barley, Winter [6, 22]: 95; Plant response rating, Barley, Winter [6, 23]: 0; Plant response rating, Barley, Winter [6, 24]: 50; Plant response rating, Barley, Winter [6, 25]: 75; Plant response rating, Barley, Winter [6, 26]: 75; Plant response rating, Oat, Wild (wild oat (Avena fatua); [19]): 100; Plant response rating, Oat, Wild (wild oat (Avena fatua); [20]): 100; Plant response rating, Oat, Wild (wild oat (Avena fatua); [21]): 100; Plant response rating, Oat, Wild (wild oat (Avena fatua); [22]): 100; Plant response rating, Oat, Wild (wild oat (Avena fatua); [23]): 50; Plant response rating, Oat, Wild (wild oat (Avena fatua); [24]): 75; Plant response rating, Oat, Wild (wild oat (Avena fatua); [25]): 80; Plant response rating, Oat, Wild (wild oat (Avena fatua); [26]): 90; Plant response rating, Bromegrass, Downy [7, 19]: 15; Plant response rating, Bromegrass, Downy [7, 20]: 40; Plant response rating, Bromegrass, Downy [7, 21]: 65; Plant response rating, Bromegrass, Downy [7, 22]: 75; Plant response rating, Bromegrass, Downy [7, 23]: 0; Plant response rating, Bromegrass, Downy [7, 24]: 20; Plant response rating, Bromegrass, Downy [7, 25]: 50; Plant response rating, Bromegrass, Downy [7, 26]: 80; Plant response rating, Blackgrass [8, 19]: 90; Plant response rating, Blackgrass [8, 20]: 98; Plant response rating, Blackgrass [8, 21]: 100; Plant response rating, Blackgrass [8, 22]: 100; Plant response rating, Blackgrass [8, 24]: 25; Plant response rating, Blackgrass [8, 25]: 100; Plant response rating, Blackgrass [8, 26]: 100; Plant response rating, Barley, Spring [9, 19]: 60; Plant response rating, Barley, Spring [9, 20]: 95; Plant response rating, Barley, Spring [9, 21]: 95; Plant response rating, Barley, Spring [9, 22]: 98; Plant response rating, Barley, Spring [9, 23]: 0; Plant response rating, Barley, Spring [9, 24]: 60; Plant response rating, Barley, Spring [9, 25]: 60; Plant response rating, Barley, Spring [9, 26]: 75; Plant response rating, Mustard, Wild [10, 19]: 0; Plant response rating, Mustard, Wild [10, 20]: 0; Plant response rating, Mustard, Wild [10, 21]: 0; Plant response rating, Mustard, Wild [10, 22]: 0; Plant response rating, Mustard, Wild [10, 23]: 0; Plant response rating, Mustard, Wild [10, 24]: 0; Plant response rating, Mustard, Wild [10, 25]: 0; Plant response rating, Ryegrass, Italian [11, 19]: 90; Plant response rating, Ryegrass, Italian [11, 20]: 98; Plant response rating, Ryegrass, Italian [11, 21]: 100; Plant response rating, Ryegrass, Italian [11, 22]: 100; Plant response rating, Ryegrass, Italian [11, 23]: 90; Plant response rating, Ryegrass, Italian [11, 24]: 100; Plant response rating, Ryegrass, Italian [11, 25]: 100; Plant response rating, Ryegrass, Italian [11, 26]: 100; Plant response rating, Windgrass [12, 19]: 50; Plant response rating, Windgrass [12, 20]: 90; Plant response rating, Windgrass [12, 21]: 95; Plant response rating, Windgrass [12, 22]: 100; Plant response rating, Windgrass [12, 23]: 100; Plant response rating, Windgrass [12, 24]: 100; Plant response rating, Windgrass [12, 25]: 100; Plant response rating, Windgrass [12, 26]: 100; Plant response rating, Wheat, Winter [13, 19]: 75; Plant response rating, Wheat, Winter [13, 20]: 80; Plant response rating, Wheat, Winter [13, 21]: 95; Plant response rating, Wheat, Winter [13, 22]: 98; Plant response rating, Wheat, Winter [13, 23]: 40; Plant response rating, Wheat, Winter [13, 24]: 65; Plant response rating, Wheat, Winter [13, 26]: 70; Plant response rating, Bluegrass [14, 19]: 0; Plant response rating, Bluegrass [14, 20]: 0; Plant response rating, Bluegrass [14, 21]: 0; Plant response rating, Bluegrass [14, 22]: 0; Plant response rating, Bluegrass [14, 23]: 0; Plant response rating, Bluegrass [14, 24]: 0; Plant response rating, Bluegrass [14, 25]: 0; Plant response rating, Bluegrass [14, 26]: 0

Question: Which results are given for `Cc1cc(-c2ccc(Cl)cc2)nn1-c1c(OS(=O)(=O)c2cccc3ccccc23)cnn(C)c1=O` [Compound 47]?
Answer: Plant response rating, Crabgrass, Large [1, 15]: 10; Plant response rating, Crabgrass, Large [1, 16]: 50; Plant response rating, Crabgrass, Large [1, 17]: 10; Plant response rating, Crabgrass, Large [1, 18]: 90; Plant response rating, Velvetleaf [2, 15]: 0; Plant response rating, Velvetleaf [2, 16]: 0; Plant response rating, Velvetleaf [2, 17]: 0; Plant response rating, Velvetleaf [2, 18]: 0; Plant response rating, Foxtail, Giant [3, 15]: 10; Plant response rating, Foxtail, Giant [3, 16]: 60; Plant response rating, Foxtail, Giant [3, 17]: 70; Plant response rating, Foxtail, Giant [3, 18]: 90; Plant response rating, Foxtail, Green [4, 23]: 0; Plant response rating, Foxtail, Green [4, 24]: 15; Plant response rating, Foxtail, Green [4, 25]: 80; Plant response rating, Foxtail, Green [4, 26]: 100; Plant response rating, Canarygrass [5, 23]: 0; Plant response rating, Canarygrass [5, 24]: 0; Plant response rating, Canarygrass [5, 25]: 50; Plant response rating, Canarygrass [5, 26]: 90; Plant response rating, Barley, Winter [6, 23]: 0; Plant response rating, Barley, Winter [6, 24]: 20; Plant response rating, Barley, Winter [6, 25]: 40; Plant response rating, Barley, Winter [6, 26]: 40; Plant response rating, Oat, Wild (wild oat (Avena fatua); [23]): 0; Plant response rating, Oat, Wild (wild oat (Avena fatua); [24]): 0; Plant response rating, Oat, Wild (wild oat (Avena fatua); [25]): 75; Plant response rating, Oat, Wild (wild oat (Avena fatua); [26]): 80; Plant response rating, Bromegrass, Downy [7, 23]: 0; Plant response rating, Bromegrass, Downy [7, 24]: 15; Plant response rating, Bromegrass, Downy [7, 25]: 35; Plant response rating, Bromegrass, Downy [7, 26]: 35; Plant response rating, Blackgrass [8, 23]: 0; Plant response rating, Blackgrass [8, 24]: 0; Plant response rating, Blackgrass [8, 25]: 90; Plant response rating, Blackgrass [8, 26]: 100; Plant response rating, Barley, Spring [9, 23]: 10; Plant response rating, Barley, Spring [9, 24]: 20; Plant response rating, Barley, Spring [9, 25]: 35; Plant response rating, Barley, Spring [9, 26]: 75; Plant response rating, Mustard, Wild [10, 23]: 0; Plant response rating, Mustard, Wild [10, 24]: 0; Plant response rating, Mustard, Wild [10, 25]: 0; Plant response rating, Mustard, Wild [10, 26]: 0; Plant response rating, Ryegrass, Italian [11, 23]: 0; Plant response rating, Ryegrass, Italian [11, 24]: 20; Plant response rating, Ryegrass, Italian [11, 25]: 80; Plant response rating, Ryegrass, Italian [11, 26]: 100; Plant response rating, Windgrass [12, 23]: 0; Plant response rating, Windgrass [12, 24]: 0; Plant response rating, Windgrass [12, 25]: 30; Plant response rating, Windgrass [12, 26]: 65; Plant response rating, Wheat, Winter [13, 23]: 0; Plant response rating, Wheat, Winter [13, 24]: 20; Plant response rating, Wheat, Winter [13, 25]: 35; Plant response rating, Wheat, Winter [13, 26]: 65; Plant response rating, Bluegrass [14, 23]: 0; Plant response rating, Bluegrass [14, 24]: 20; Plant response rating, Bluegrass [14, 25]: 50; Plant response rating, Bluegrass [14, 26]: 50
